Each structure is given as a SMILES string. Where a name gives a salt, the structure may show the parent alone.

Format in all cases: cell-based, human
Assay [1] deals with induced pluripotent stem cells (iPS cells, 201B7 strain). In words: Proliferation promoting effect of ethanolamine analogs, laminin 511 fragment, single cell-seeding. To be noted: 1 week. Here is the method: (§1) In the following Examples, proliferation effects of various test compounds on human pluripotent stem cells were evaluated. As human pluripotent stem cells, induced pluripotent stem cells (iPS cells, 201B7 strain) purchased from iPS Academia Japan, Inc. were used, unless particularly specified. Cell culture was performed using a culture vessel (Becton, Dickinson and Company, Falcon culture petri dish or Falcon culture plate) coated with a basal lamina matrix under the conditions of 5% CO2/37° C.
(§2) Various test compounds were added to a medium having the “E8” composition (disclosed in Nature Methods, 2011, 8, 424-429, which is incorporated herein by reference in its entirety) considered at present to be the minimum composition for cultivating human pluripotent stem cells at given concentrations and used for culture, and the effects thereof were studied. The medium was prepared by using Essential 8 (Life Technologies: A14666SA) considered to have the “E8” composition or a medium formulated to have an equivalent composition.
(§3) After the culture, the cell number was counted to examine the effect of O-phosphoryl ethanolamine. The culture period was set to 1 week. 13,000 viable cells per well were used for single cell-seeding. As a basal lamina matrix, a fragment containing the active domain of laminin 511, which was purchased from Osaka University, was applied at 4.8 μg/well. Y-27632 was added (final concentration 10 μM, Nacalai Tesque: 08945-84) to the medium used for seeding. The cells were cultured in a medium free of Y-27632 from the following day. The number of viable cells was measured by Cell Viability autoanalyzer ViCELL™ XR (BECKMAN COULTER).
as §3, with “2-(methylamino)ethanol.” for “O-phosphoryl ethanolamine.”
as §3, with “2-dimethylaminoethanol.” for “O-phosphoryl ethanolamine.”
After the culture, the cell number was counted to examine the effect of ethanolamine hydrochloride. The culture period was set to 1 week. 13,000 viable cells per well were used for single cell-seeding. As a basal lamina matrix, a fragment containing the active domain of laminin 511, which was purchased from Osaka University, was applied at 4.8 μg/well. Y-27632 was added (final concentration 10 μM, Nacalai Tesque: 08945-84) to the medium used for seeding. […] The number of viable cells was measured by Cell Viability autoanalyzer ViCELL™ XR (BECKMAN COULTER).

Assay [2] has the same test system. The assay is described as follows: Proliferation promoting effect of ethanolamine and combination with albumin, laminin 511 fragment, single cell-seeding. To be noted: 1 week. Here is the method: as §1, §2
Ethanolamine (Sigma-Aldrich Co. LLC: E0135) was added at a final concentration of 6, 30, 150, 750 or 3,750 μM, and the medium was used for culture immediately after preparation, and the effect of ethanolamine was examined by studying the cell numbers after culture. The culture period was 1 week. […] 13,000 viable cells per 1 well were used for single cell-seeding. As a basal lamina matrix, a fragment containing the active domain of laminin 511, which was purchased from Osaka University, was applied at 5 μg/well. Y-27632 was added (final concentration 10 μM, Nacalai Tesque: 08945-84) to the medium used for seeding. The cells were cultured in a medium free of Y-27632 from the following day. The number of viable cells was measured by Trypan Blue (Life Technologies: 15250-061) staining using a hemocytometer.

Assay [3] shares this test system. The assay is described as follows: Proliferation promoting effect of ethanolamine, culture using matrigel. As to conditions: 6, 30, 150, 750 or 3,750 μM, 8 days, single cell-seeding. How it is done:
as §1, §2
Ethanolamine (Sigma-Aldrich Co. LLC: E0135) was added at a final concentration of 6, 30, 150, 750 or 3,750 μM, and the medium was used for culture immediately after preparation, and the effect of ethanolamine was examined by studying the cell numbers after culture. The culture period was 8 days. 100,000 cells per 1 well were used for single cell-seeding. […]

For assay [4] the test system is unchanged. In words: Influence of oleic acid carried by albumin on cell proliferation. To be noted: oleic acid carried by albumin 2.2, 6.5, 21.7 mg/g (20, 60, 200 μM in medium); albumin 2.6 g/l, ethanolamine 30 μM; one week. Here is the method:
as §1
Furthermore, a suspension of activated carbon (5 g, manufactured by Wako Pure Chemical Industries, Ltd.) heated at 200° C. for 30 min in advance in phosphate buffer (20 ml) was added to 100 ml. After stirring at 4° C. for 3 hr, the mixture was centrifuged at 4° C., 11,900 rpm for 20 min. […] Ethanolamine (final concentration 30 μM) was added to each medium. Using each medium, the cells were cultured for one week, and the cell number after culture was confirmed to study the influence of oleic acid. 13,000 viable cells per well were used for single cell-seeding. As a basal lamina matrix, a fragment containing the active domain of laminin 511, which was purchased from Osaka University, was applied at 4.8 μg/well. […] The number of viable cells was measured by Cell Viability autoanalyzer ViCELL™ XR (BECKMAN COULTER).

[5] abbreviates: 6, 30, 150 or 750 μM in medium with albumin 2.6 g/l.

As to `CNCCO` [2-(methylamino)ethanol], the “cell number relative to non-addition group (0 μM)” value in assay [1] (setting [5]) is “proliferation-promoting effect in a relatively wide concentration range”.

Take `CN(C)CCO` [2-dimethylaminoethanol]: the “cell number relative to non-addition group (0 μM)” value was “proliferation promoting effect in a relatively wide concentration range” in assay [1] (setting [5]) and “proliferation suppressive effect appears in a high concentration range” in assay [1] (high concentration range, medium with albumin 2.6 g/l). For the molecule `NCCOP(=O)(O)O` [O-phosphoryl ethanolamine], the “cell number relative to non-addition group (0 μM)” value in assay [1] (setting [5]) is recorded as “proliferation-promoting effect in a relatively wide concentration range”. Still for that read-out and setting: to `NCCO` [ethanolamine hydrochloride] belongs “proliferation-promoting effect in a relatively wide concentration range”. Regarding `NCCO` [ethanolamine], the “cell number relative to non-addition group (0 μM)” value in assay [2] (6, 30, 150, 750 or 3,750 μM, without albumin) was “proliferation-promoting effect in a relatively wide concentration range”; in assay [2] (6-3,750 μM combined with albumin 2.6 g/l) it was “combination with albumin further enhances the proliferation promoting effect”; in assay [2] (high concentration range combined with albumin 2.6 g/l), “resists a proliferation suppressive effect in a high concentration range, and shows a proliferation promoting effect”; in assay [2] (high concentration range, without albumin) it was “proliferation suppressive effect conversely appears in a high concentration range”. In addition, in assay [3], the “cell number after culture” value is on record as “proliferation promoting effect in a wide concentration range”. As for `CCCCCCCC/C=C\CCCCCCCC(=O)O` [oleic acid], the “cell number after culture” value in assay [4] is listed as “cell proliferation was suppressed along with an increasing amount of oleic acid carried by albumin”.

These data come from patent US10662411B2, “Culture method for stable proliferation of pluripotent stem cell while maintaining undifferentiated state” (AJINOMOTO CO., INC., priority 2013, dated 2020).
